According to PubChem BioAssay (NCI):
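A five-concentration, 48-hour dose response in 96-well plates underlies each endpoint, interpolated linearly between surrounding concentrations. Definition used: TGI = concentration required for complete inhibition of growth.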

Experiments:
Test in all cases: NCI anticancer screen, dose series, 48 h
[1] = tested on: HCC-2998 colon
[2] = tested on: UO-31 renal
[3] = tested on: DU-145 prostate
[4] = tested on: 786-0 renal
[5] = tested on: IGROV1 ovarian
[6] = tested on: SW-620 colon
[7] = tested on: A549 NSCLC
[8] = tested on: UACC-62 melanoma
[9] = tested on: BT-549 breast
[10] = tested on: MALME-3M melanoma
[11] = tested on: OVCAR-4 ovarian
[12] = tested on: SF-295 CNS
[13] = tested on: HCT-116 colon
[14] = tested on: HS 578T breast
[15] = tested on: HT29 colon
[16] = tested on: HOP-62 NSCLC
[17] = tested on: CAKI-1 renal
[18] = tested on: PC-3 prostate
[19] = tested on: RXF 393 renal
[20] = tested on: MDA-MB-435
[21] = tested on: UACC-257 melanoma
[22] = tested on: SNB-75 CNS
[23] = tested on: OVCAR-8 ovarian
[24] = tested on: KM12 colon
[25] = tested on: SF-268 CNS
[26] = tested on: MCF7 breast
[27] = tested on: OVCAR-5 ovarian
[28] = tested on: SK-MEL-5 melanoma
[29] = tested on: SK-OV-3 ovarian
[30] = tested on: HL-60(TB) leukemia
[31] = tested on: RPMI-8226 leukemia
[32] = tested on: COLO 205 colon
[33] = tested on: M14 melanoma
[34] = tested on: NCI-H522 lung
[35] = tested on: SNB-19 CNS
[36] = tested on: A498 renal
[37] = tested on: SN12C renal
[38] = tested on: SR leukemia
[39] = tested on: HOP-92 NSCLC
[40] = tested on: SK-MEL-28 melanoma
[41] = tested on: HCT-15 colon
[42] = tested on: U251 CNS
[43] = tested on: MDA-N
[44] = tested on: CCRF-CEM leukemia
[45] = tested on: NCI-H23 lung
[46] = tested on: MOLT-4 leukemia
[47] = tested on: OVCAR-3 ovarian
[48] = tested on: NCI-H460 lung
[49] = tested on: SF-539 CNS
[50] = tested on: TK-10 renal
[51] = tested on: ACHN renal
[52] = tested on: EKVX NSCLC
[53] = tested on: T-47D breast
[54] = tested on: LOX IMVI melanoma
[55] = tested on: NCI-H226 lung
[56] = tested on: K-562 leukemia
[57] = tested on: MDA-MB-231 breast
[58] = tested on: NCI/ADR-RES ovarian
[59] = tested on: SK-MEL-2 melanoma

Measured: TGI

OC[C@@H](O)[C@H]1NC[C@@H](O)[C@H]1O
> 100 µM: [1] | [2] | [3] | [4] | [5] | [6] | [7] | [8] | [9] | [10] | [11] | [12] | [13] | [14] | [15] | [16] | [17] | [18] | [19] | [20] | [21] | [22] | [23] | [24] | [25] | [26] | [27] | [28] | [29] | [30] | [31] | [32] | [33] | [34] | [35] | [36] | [37] | [38] | [39] | [40] | [41] | [42] | [43] | [44] | [45] | [46] | [47] | [48] | [49] | [50] | [51] | [52]

Cc1cc2c(C)cc(=O)[nH]c2cc1N
> 100 µM: [53] | [1] | [2] | [3] | [4] | [5] | [6] | [7] | [8] | [9] | [11] | [54] | [12] | [13] | [15] | [16] | [17] | [18] | [19] | [20] | [21] | [22] | [23] | [24] | [26] | [27] | [28] | [31] | [32] | [33] | [55] | [35] | [56] | [36] | [37] | [57] | [38] | [39] | [40] | [41] | [42] | [58] | [43] | [44] | [45] | [46] | [47] | [48] | [49] | [51] | [52]

Nn1c(CCCCCCCCc2nnc(COc3c(O)ccc4ccccc34)n2N)nnc1COc1c(O)ccc2ccccc12
> 100 µM: [1] | [2] | [3] | [4] | [5] | [6] | [7] | [8] | [9] | [10] | [11] | [59] | [12] | [13] | [15] | [17] | [18] | [19] | [20] | [21] | [22] | [24] | [25] | [26] | [27] | [28] | [29] | [31] | [32] | [33] | [55] | [34] | [35] | [56] | [36] | [37] | [57] | [39] | [40] | [41] | [42] | [58] | [43] | [45] | [46] | [48] | [50] | [51] | [52]

CN(C)/C=C/c1nnc([N+](=O)[O-])s1
14.2 µM: [20]
33.2 µM: [1]
36.8 µM: [45]
24.3 µM: [28]
51.5 µM: [16]
38.9 µM: [53]
36.3 µM: [4]
30.8 µM: [3]
39.3 µM: [59]
42.1 µM: [25]
67.6 µM: [36]
10.3 µM: [32]
7.58 µM: [47]
51.8 µM: [42]
47.7 µM: [37]
79.3 µM: [35]
42.6 µM: [14]
34.7 µM: [9]
58.5 µM: [50]
31.4 µM: [19]
29.6 µM: [24]
8.01 µM: [26]
33.1 µM: [6] | [48]
29.1 µM: [33]
31.9 µM: [51]
37.7 µM: [58]
17.4 µM: [54] | [43]
14.6 µM: [10] | [15]
39.4 µM: [12]
66.6 µM: [22]
85.9 µM: [57]
53.3 µM: [23]
22 µM: [18]
3.27 µM: [34]
40.5 µM: [17]
41.9 µM: [55]
23.4 µM: [49]
27.2 µM: [21]
32.2 µM: [41]
35.4 µM: [8]
29.7 µM: [2]
26.2 µM: [13]
55.2 µM: [29]
66.4 µM: [7]
